Measured values taken from publication PMC4186417 (Pharmacology Research & Perspectives, 2014).
pEC50: −log10 of the molar value.

Target: T1, EP1 receptor (Mus musculus, UniProt P35375)
T1 sequence (P35375 1-405): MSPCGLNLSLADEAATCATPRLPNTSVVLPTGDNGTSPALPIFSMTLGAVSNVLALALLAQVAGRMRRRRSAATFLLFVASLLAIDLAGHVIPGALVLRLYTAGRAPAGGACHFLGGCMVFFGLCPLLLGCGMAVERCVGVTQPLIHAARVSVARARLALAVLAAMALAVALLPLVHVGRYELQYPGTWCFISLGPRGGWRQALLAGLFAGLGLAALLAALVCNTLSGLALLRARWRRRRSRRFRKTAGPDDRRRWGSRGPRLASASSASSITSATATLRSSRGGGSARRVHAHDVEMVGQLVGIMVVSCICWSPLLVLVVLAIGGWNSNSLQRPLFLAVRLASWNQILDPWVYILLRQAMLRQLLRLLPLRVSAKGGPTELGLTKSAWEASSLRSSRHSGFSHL
Assay: Fura-2 intracellular Ca2+ dose-response in EP1-HEK cells
Assay type: cell-based

SMILES: CCCCC[C@H](O)/C=C/[C@H]1[C@H](O)CC(=O)[C@@H]1C/C=C\CCCC(=O)O [PGE2]
- pEC50: 7.89
